In patent US20160145247A1, “Aminomethyl-Biaryl Derivatives Complement Factor D inhibitors and uses thereof” (NOVARTIS AG, priority 2013, published 2016):

What follows are molecules tested against T1, factor D (Homo sapiens, UniProt P00746) (assay: factor D inhibition assay of Biological Example 2).
T1 construct: made in house; host or cells: E. coli
T1 sequence (P00746 26-253): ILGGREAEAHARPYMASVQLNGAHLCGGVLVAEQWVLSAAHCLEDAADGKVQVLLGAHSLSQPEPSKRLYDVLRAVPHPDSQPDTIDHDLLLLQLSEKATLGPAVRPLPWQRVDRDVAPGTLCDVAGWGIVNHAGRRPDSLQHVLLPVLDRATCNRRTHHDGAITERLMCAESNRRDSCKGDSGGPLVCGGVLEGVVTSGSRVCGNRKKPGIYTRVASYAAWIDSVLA
Format: biochemical
For `CC(C)CC(=O)Nc1cc(C(=O)Nc2ccccc2CC(=O)O)cc(-c2cc(F)cc(CN)c2)c1` [Example 98, 2-(2-(3′-(Aminomethyl)-5′-fluoro-5-(3-methylbutanamido)-[1,1′-biphenyl]-3-ylcarboxamido)phenyl)acetic acid], the IC50 was 4 nM. `NCc1cccc(-c2cccc(OCc3ccccc3CC(=O)O)n2)c1` [Example 99-C, 2-(2-(((6-(3-(Aminomethyl)phenyl)pyridin-2-yl)oxy)methyl)phenyl)acetic acid] was tested, and the IC50 was 1850 nM. With `NCc1cccc(-c2cc(Cl)cc(COc3ccccc3CC(=O)O)c2)c1` [Example 102-B, 2-(2-((3′-(Aminomethyl)-5-chloro-[1,1′-biphenyl]-3-yl)methoxy)phenyl)acetic acid] the IC50 was 9 nM. `NCc1cccc(-c2cc(COc3ccccc3CC(=O)O)cc(C3CC3)c2)c1` [Example 103-B, 2-(2-((3′-(Aminomethyl)-5-cyclopropyl-[1,1′-biphenyl]-3-yl)methoxy)phenyl)acetic acid] showed an IC50 of 10 nM. Molecule `CCc1cc(COc2ccccc2CC(=O)O)cc(-c2cccc(CN)c2)c1` [Example 104, 2-(2-((3′-(aminomethyl)-5-ethyl-[1,1′-biphenyl]-3-yl)methoxy)phenyl)acetic acid] has an IC50 of 6 nM. With `NCc1cccc(-c2cc(CCO)cc(COc3ccccc3CC(=O)O)c2)c1` [Example 105-C, 2-(2-((3′-(Aminomethyl)-5-(2-hydroxyethyl)-[1,1′-biphenyl]-3-yl)methoxy)phenyl)acetic acid] the IC50 was 15 nM. For `NCc1cccc(-c2cc(CCC3CC3)cc(COc3ccccc3CC(=O)O)c2)c1` [Example 107-C, 2-(2-((3′-(Aminomethyl)-5-(2-cyclopropylethyl)-[1,1′-biphenyl]-3-yl)methoxy)phenyl)acetic acid], the IC50 was 2 nM. `N[C@H](CO)c1cccc(-c2cc(Cl)cc(COc3ccccc3CC(=O)O)c2)c1` [Example 108-B, (S)-2-(2-((3′-(1-Amino-2-hydroxyethyl)-5-chloro-[1,1′-biphenyl]-3-yl)methoxy)phenyl)acetic acid] showed an IC50 of 7 nM. `N[C@H](CO)c1cccc(-c2cc(COc3ccccc3CC(=O)O)cc(C3CC3)c2)c1` [Example 109-B, (S)-2-(2-((3′-(1-Amino-2-hydroxyethyl)-5-cyclopropyl-[1,1′-biphenyl]-3-yl)methoxy)phenyl)acetic acid] showed an IC50 of 22 nM. With `CCc1cc(COc2ccccc2CC(=O)O)cc(-c2cccc([C@H](N)CO)c2)c1` [Example 110-C, (S)-2-(2-((3′-(1-Amino-2-hydroxyethyl)-5-ethyl-[1,1′-biphenyl]-3-yl)methoxy)phenyl)acetic acid] the IC50 was 30 nM. Work on `Cc1cc(COc2ccccc2CC(=O)O)cc(-c2cccc([C@H](N)CO)c2)c1` [Example 112-B, (S)-2-(2-((3′-(1-Amino-2-hydroxyethyl)-5-methyl-[1,1′-biphenyl]-3-yl)methoxy)phenyl)acetic acid] yielded an IC50 of 7 nM. For `N#Cc1cc(COc2ccccc2CC(=O)O)cc(-c2cccc(CN)c2)c1` [Example 113-B, 2-(2-((3′-(Aminomethyl)-5-cyano-[1,1′-biphenyl]-3-yl)methoxy)phenyl)acetic acid], the IC50 was 30 nM. In the case of `N[C@H](CO)c1cccc(-c2cc(COc3ccccc3CC(=O)O)cc(C(F)(F)F)c2)c1` [Example 114-B, (S)-2-(2-((3′-(1-Amino-2-hydroxyethyl)-5-(trifluoromethyl)-[1,1′-biphenyl]-3-yl)methoxy)phenyl)acetic acid], the IC50 is reported as 6 nM. `N[C@H](CO)c1cccc(-c2cc(F)cc(COc3ccccc3CC(=O)O)c2)c1` [Example 115-A] was tested, and the IC50 was 3 nM. Work on `CCOc1cc(COc2ccccc2CC(=O)O)cc(-c2cccc([C@H](N)CO)c2)c1` [Example 115-B] yielded an IC50 of 8 nM. `N[C@H](CO)c1cccc(-c2cc(COc3ccccc3CC(=O)O)cc(OCC(F)(F)F)c2)c1` [Example 115-C] gave an IC50 of 5 nM. `C[C@@H](N)c1cccc(-c2cc(CO)cc(COc3ccccc3CC(=O)O)c2)c1` [Example 116-A] gave an IC50 of 21 nM. `NCc1cccc(-c2cc(COc3ccccc3CC(=O)O)cc(COc3ccccc3CC(=O)O)c2)c1` [Example 116-C] was tested, and the IC50 was 4 nM. Molecule `CC(O)c1cc(COc2ccccc2CC(=O)O)cc(-c2cccc([C@@H](C)N)c2)c1` (stereo partly shown) [Example 116-F] has an IC50 of 5 nM. Work on `Cc1ccc(COc2ccccc2CC(=O)O)cc1-c1cccc([C@H](N)CO)c1` [Example 116-K] yielded an IC50 of 108 nM. In the case of `Cc1c(COc2ccccc2CC(=O)O)cccc1-c1cccc([C@H](N)CO)c1` [Example 116-L], the IC50 is reported as 10300 nM. In the case of `Cc1ccc(COc2ccccc2CC(=O)O)cc1-c1cccc([C@@H](C)N)c1` [Example 116-M], the IC50 is reported as 1230 nM. For `Cc1c(COc2ccccc2CC(=O)O)cccc1-c1cccc([C@@H](C)N)c1` [Example 116-N], the IC50 was 52500 nM. Molecule `CCC[C@@H](N)c1cccc(-c2cc(CO)cc(COc3ccccc3CC(=O)O)c2)c1` [Example 117-B, (R)-2-(2-((3′-(1-Aminobutyl)-5-(hydroxymethyl)-[1,1′-biphenyl]-3-yl)methoxy)phenyl)acetic acid] has an IC50 of 83 nM. With `CCC[C@@H](N)c1cccc(-c2cc(COC)cc(COc3ccccc3CC(=O)O)c2)c1` [Example 118, (R)-2-(2-((3′-(1-Aminobutyl)-5-(methoxymethyl)-[1,1′-biphenyl]-3-yl)methoxy)phenyl)acetic acid] the IC50 was 67 nM. `COCc1cc(COc2ccccc2CC(=O)O)cc(-c2cccc([C@@H](C)N)c2F)c1` [Example 120-A] showed an IC50 of 15 nM. For `C[C@@H](N)c1cccc(-c2cc(CO)cc(COc3ccccc3CC(=O)O)c2)c1F` [Example 120-B], the IC50 was 55 nM. For `COCc1cc(COc2ccccc2CC(=O)O)cc(-c2cccc([C@@H](C)N)c2)c1` [Example 120-C], the IC50 was 3 nM. Work on `COC(C)c1cc(COc2ccccc2CC(=O)O)cc(-c2cccc([C@@H](C)N)c2F)c1` (stereo partly shown) [Example 120-D] yielded an IC50 of 93 nM. `COC(C)c1cc(COc2ccccc2CC(=O)O)cc(-c2cccc([C@H](N)CO)c2)c1` (stereo partly shown) [Example 120-E] gave an IC50 of 17 nM. Molecule `CC(O)c1cc(COc2ccccc2CC(=O)O)cc(-c2cccc([C@@H](C)N)c2F)c1` (stereo partly shown) [Example 120-F] has an IC50 of 8 nM. `C[C@@H](N)c1cccc(-c2cc(COc3ccccc3CC(=O)O)cc(C(C)(C)O)c2)c1F` [Example 120-G] was tested, and the IC50 was 13 nM. For `C[C@@H](N)c1cccc(-c2cc(COc3ccccc3CC(=O)O)cc(C(C)(C)O)c2)c1` [Example 120-H], the IC50 was 10 nM. `COCc1cc(COc2ccccc2CC(=O)O)cc(-c2cccc([C@H](C)N)c2F)c1` [Example 120-I] showed an IC50 of 25 nM. With `CC(O)c1cc(COc2ccccc2CC(=O)O)cc(-c2cccc([C@H](C)N)c2F)c1` (stereo partly shown) [Example 120-J] the IC50 was 23 nM. Molecule `COCc1cc(COc2ccccc2CC(=O)O)cc(-c2cccc([C@H](C)N)c2)c1` [Example 120-K] has an IC50 of 190 nM. `CC(O)c1cc(COc2ccccc2CC(=O)O)cc(-c2cccc([C@H](C)N)c2)c1` (stereo partly shown) [Example 120-L] was tested, and the IC50 was 280 nM. For `C[C@@H](N)c1cccc(-c2cc(COCC(F)(F)F)cc(COc3ccccc3CC(=O)O)c2)c1F` [Example 120-M], the IC50 was 11 nM. `C[C@@H](N)c1cccc(-c2cc(COCC(F)(F)F)cc(COc3ccccc3CC(=O)O)c2)c1` [Example 120-N] showed an IC50 of 15 nM. With `CC(C)OCc1cc(COc2ccccc2CC(=O)O)cc(-c2cccc([C@@H](C)N)c2F)c1` [Example 120-O] the IC50 was 24 nM. Work on `CC(C)OCc1cc(COc2ccccc2CC(=O)O)cc(-c2cccc([C@@H](C)N)c2)c1` [Example 120-P] yielded an IC50 of 7 nM. `CCOCc1cc(COc2ccccc2CC(=O)O)cc(-c2cccc([C@@H](C)N)c2F)c1` [Example 120-Q] gave an IC50 of 17 nM. `CCOCc1cc(COc2ccccc2CC(=O)O)cc(-c2cccc([C@@H](C)N)c2)c1` [Example 120-R] gave an IC50 of 50 nM. `C[C@@H](N)c1cccc(-c2cc(COc3ccccc3CC(=O)O)cc(COC3CCOc4ccc(Cl)cc43)c2)c1F` (stereo partly shown) [Example 120-S] showed an IC50 of 21 nM. `C[C@@H](N)c1cccc(-c2cc(COc3ccccc3CC(=O)O)cc(COC3CCOc4ccc(Cl)cc43)c2)c1` (stereo partly shown) [Example 120-T] was tested, and the IC50 was 8 nM. For `C[C@@H](N)c1cccc(-c2cc(Br)cc(COc3ccccc3CC(=O)O)c2)c1F` [Example 120-U], the IC50 was 12 nM. For `COCCc1cc(COc2ccccc2CC(=O)O)cc(-c2cccc([C@@H](C)N)c2F)c1` [Example 120-V], the IC50 was 9 nM. `COCCc1cc(COc2ccccc2CC(=O)O)cc(-c2cccc([C@@H](C)N)c2)c1` [Example 120-W] showed an IC50 of 13 nM. Work on `C[C@@H](N)c1cccc(-c2cc(COc3ccccc3CC(=O)O)cc(COC(F)F)c2)c1F` [Example 120-X] yielded an IC50 of 4 nM. For `N[C@H](CO)c1cccc(-c2cc(COc3ccccc3CC(=O)O)ccc2F)c1` [Example 122, (S)-2-(2-((3′-(1-Amino-2-hydroxyethyl)-6-fluoro-[1,1′-biphenyl]-3-yl)methoxy)phenyl)acetic acid], the IC50 was 15 nM. `N[C@H](CO)c1cccc(-c2cccc(COc3ccccc3CC(=O)O)c2F)c1` [Example 123, (S)-2-(2-((3′-(1-Amino-2-hydroxyethyl)-2-fluoro-[1,1′-biphenyl]-3-yl)methoxy)phenyl)acetic acid] was tested, and the IC50 was 312 nM. With `C[C@@H](N)c1cccc(-c2cc(COc3ccccc3CC(=O)O)ccc2F)c1` [Example 124, (R)-2-(2-((3′-(1-Aminoethyl)-6-fluoro-[1,1′-biphenyl]-3-yl)methoxy)phenyl)acetic acid] the IC50 was 99 nM. In the case of `C[C@@H](N)c1cccc(-c2cccc(COc3ccccc3CC(=O)O)c2F)c1` [Example 125, (R)-2-(2-((3′-(1-Aminoethyl)-2-fluoro-[1,1′-biphenyl]-3-yl)methoxy)phenyl)acetic acid], the IC50 is reported as 4450 nM. `NCc1cccc(-c2cc(COc3ccccc3CC(=O)O)cc3c2OCO3)c1` [Example 126-B, 2-(2-((7-(3-(Aminomethyl)phenyl)benzo[d][1,3]dioxol-5-yl)methoxy)phenyl)acetic acid] gave an IC50 of 3 nM. `COc1ccc(COc2ccccc2CC(=O)O)cc1-c1cccc([C@H](N)CO)c1` [Example 127-B, (S)-2-(2-((3′-(1-Amino-2-hydroxyethyl)-6-methoxy-[1,1′-biphenyl]-3-yl)methoxy)phenyl)acetic acid] was tested, and the IC50 was 62 nM.
